From ChEMBL document CHEMBL3856215, “Design and synthesis of N-(5-chloro-2,4-dihydroxybenzoyl)-(R)-1,2,3,4-tetrahydroisoquinoline-3-carboxamides as novel Hsp90 inhibitors” (Eur J Med Chem, 2016) come the findings set out here.

Experiment [1] is described as follows: Antiproliferative activity against human MDA-MB-231 cells after 72 hrs by SRB assay. It is filed as functional, cell-based. The note with it: MDA-MB-231, 72 h. On the technique in general: The SRB assay estimates cell density from bound dye.
Experiment [2] can be described thus: Antiproliferative activity against human HeLa cells after 72 hrs by SRB assay. It is filed as functional, cell-based.
In experiment [3] the target is T1, Heat shock protein HSP90 (Homo sapiens) (UniProt P07900+P08238). Kind of experiment: Inhibition of Hsp90 in human MDA-MB-231 cells assessed as downregulation of Cdc-2 expression after 24 hrs by Western blot analysis. The class given is cell-based.
The target in experiment [4] is T1, Heat shock protein HSP90 (Homo sapiens). Kind of experiment: Inhibition of Hsp90 in human MDA-MB-231 cells assessed as downregulation of C-raf expression after 24 hrs by Western blot analysis. The class given is cell-based. Background: Immunoblotting shows a protein as a band on a membrane.
Experiment [5] shares this target. The experiment can be described thus: Inhibition of Hsp90 in human MDA-MB-231 cells assessed as downregulation of Her2 expression after 24 hrs by Western blot analysis. The class given is cell-based.
Experiment [6] has the same target. The experiment can be described thus: Inhibition of Hsp90 in human MDA-MB-231 cells assessed as upregulation of Hsp70 expression after 24 hrs by Western blot analysis. The class given is cell-based.
Experiment [7] concerns the target Heat shock protein HSP 90-alpha (Homo sapiens) (UniProt P07900). Kind of experiment: Induction of thermal stabilization of Hsp90alpha in human 293T cells at 10 uM preincubated for 3 hrs followed by […] at 37 to 61 degC and subsequently […] at room temperature by Western blot method. It is filed as cell-based.
The target in experiment [8] is T1, Heat shock protein HSP90 (Homo sapiens). The experiment can be described thus: Inhibition of Hsp90 in human MDA-MB-231 cells assessed as downregulation of CDK4 expression after 24 hrs by Western blot analysis. The class given is cell-based.
The target of experiment [9] is Heat shock protein HSP 90-alpha (Homo sapiens) (UniProt P07900). The experiment can be described thus: Induction of thermal stabilization of Hsp90alpha in human 293T cells preincubated for 3 hrs followed by […] at 55 degC and subsequently […] at room temperature by Western blot method. It is filed as cell-based.

The source made the active and inactive calls. No cut-off for these calls is given here.

One may read the IC50 as the point on the concentration scale where inhibition reaches its midpoint. Low values mean inhibition by little substance, high ones a need for much substance. Turning to `O=C(NC1CCCCC1)[C@@H]1Cc2ccccc2CN1C(=O)c1cc(Cl)c(O)cc1O`, the 50% inhibitory concentration (IC50) in experiment [1] amounted to 7.3 µM; in [2], 5.42 µM.
Turning to `CNC(=O)[C@H]1Cc2ccccc2CN1C(=O)c1cc(Cl)c(O)cc1O`, the half-maximal inhibitory concentration (IC50) in [1] was 9.42 µM; in [2], 7.62 µM.
Regarding `CC(C)NC(=O)[C@@H]1Cc2ccccc2CN1C(=O)c1cc(Cl)c(O)cc1O`, the IC50 in experiment [1] is 5.81 µM; in experiment [2], 7.12 µM.
For the molecule `O=C([C@H]1Cc2ccccc2CN1C(=O)c1cc(Cl)c(O)cc1O)N1CCCCC1`, the figures for the IC50 in experiment [1] and in experiment [2] were 1.64 µM and 3.45 µM, respectively.
As to `CC(C)NC(=O)[C@H]1Cc2ccccc2CN1C(=O)c1cc(Cl)c(O)cc1O`, the concentration for half-maximal inhibition (IC50) is 2.49 µM in [1] and 3.08 µM in experiment [2].
Consider `O=C([C@@H]1Cc2ccccc2CN1C(=O)c1cc(Cl)c(O)cc1O)N1CCCCC1`, for which the figures for the IC50 in [1] and in [2] were 9.64 µM and 8.88 µM, respectively.
`CCCNC(=O)[C@@H]1Cc2ccccc2CN1C(=O)c1cc(Cl)c(O)cc1O`: the results for the half-maximal inhibitory concentration (IC50) in [1] and in experiment [2] were 5.34 µM and 7.5 µM, respectively.
`O=C([C@@H]1Cc2ccccc2CN1C(=O)c1cc(Cl)c(O)cc1O)N1CCCC1`: the 50% inhibitory concentration (IC50) came out at 7.88 µM in experiment [1] and 9.76 µM in experiment [2].
Regarding `CNC(=O)[C@@H]1Cc2ccccc2CN1C(=O)c1cc(Cl)c(O)cc1O`, the concentration for half-maximal inhibition (IC50) in experiment [1] was 9.43 µM; in experiment [2], > 10 µM.
Regarding `COC1=C2C[C@@H](C)C[C@H](OC)[C@H](O)[C@@H](C)/C=C(\C)[C@H](OC(N)=O)[C@@H](OC)/C=C\C=C(/C)C(=O)NC(=CC1=O)C2=O` [GELDANAMYCIN], the results for the IC50 in experiment [1] and in [2] were 0.03 µM and 0.06 µM, respectively.
As to `O=C(Nc1ccccc1)[C@@H]1Cc2ccccc2CN1C(=O)c1cc(Cl)c(O)cc1O`, the IC50 in experiment [1] and in experiment [2] was > 10 µM in each case.
In the case of `C=CCNC(=O)[C@@H]1Cc2ccccc2CN1C(=O)c1cc(Cl)c(O)cc1O`, the IC50 was 6.74 µM in experiment [1] and 7 µM in [2].
Take `O=C(NCc1ccccc1)[C@H]1Cc2ccccc2CN1C(=O)c1cc(Cl)c(O)cc1O`: the inhibition result in experiment [3], in experiment [4], in experiment [5], in experiment [6] and in experiment [8] was “Dose-dependent effect” each time. Further, the values for the IC50 in [1] and in experiment [2] were 0.98 µM and 1.74 µM, respectively. Moreover, in experiment [7], the outcome was Active. Besides, in experiment [9], the Activity result was “Dose-dependent effect”.
On to `CCNC(=O)[C@H]1Cc2ccccc2CN1C(=O)c1cc(Cl)c(O)cc1O`, for which the IC50 was 4.62 µM in [1] and 4.57 µM in [2].
Regarding `CCCNC(=O)[C@H]1Cc2ccccc2CN1C(=O)c1cc(Cl)c(O)cc1O`, the values for the IC50 in experiment [1] and in experiment [2] were 2.58 µM and 3.98 µM, respectively.
Regarding `C=CCNC1=C2C[C@@H](C)C[C@H](OC)[C@H](O)[C@@H](C)/C=C(\C)[C@H](OC(N)=O)[C@@H](OC)/C=C\C=C(/C)C(=O)NC(=CC1=O)C2=O` [TANESPIMYCIN], the IC50 in [1] amounted to 0.52 µM; in experiment [2] it was 0.2 µM.
The matching figures for `CCN(CC)C(=O)[C@H]1Cc2ccccc2CN1C(=O)c1cc(Cl)c(O)cc1O`: 2.24 µM and 4.91 µM.
The matching figures for `O=C(NCCc1ccccc1)[C@@H]1Cc2ccccc2CN1C(=O)c1cc(Cl)c(O)cc1O`: 9.05 µM and > 10 µM.
Regarding `O=C(Nc1ccccc1)[C@H]1Cc2ccccc2CN1C(=O)c1cc(Cl)c(O)cc1O`, the figures for the half-maximal inhibitory concentration (IC50) in experiment [1] and in [2] were 1.9 µM and 2.69 µM, respectively.
`O=C(NCc1ccccc1)[C@@H]1Cc2ccccc2CN1C(=O)c1cc(Cl)c(O)cc1O`: the IC50 in experiment [1] turned out to be 4.05 µM; in [2] it was 4.58 µM.
For `CCN(CC)C(=O)[C@@H]1Cc2ccccc2CN1C(=O)c1cc(Cl)c(O)cc1O` the same measures were 6.2 µM and 7.8 µM.
Turning to `O=C(NC1CCCC1)[C@@H]1Cc2ccccc2CN1C(=O)c1cc(Cl)c(O)cc1O`, the IC50 in experiment [1] and in experiment [2] was > 10 µM throughout.
With `O=C([C@H]1Cc2ccccc2CN1C(=O)c1cc(Cl)c(O)cc1O)N1CCCC1`, the IC50 worked out at 1.94 µM in experiment [1] and 3.97 µM in [2].
As to `O=C(NC1CCCCC1)[C@H]1Cc2ccccc2CN1C(=O)c1cc(Cl)c(O)cc1O`, the IC50 amounted to 2.05 µM in experiment [1] and 3.55 µM in experiment [2].
As to `C=CCNC(=O)[C@H]1Cc2ccccc2CN1C(=O)c1cc(Cl)c(O)cc1O`, the IC50 was 2.15 µM in experiment [1] and 3.07 µM in [2].
`O=C(NCCc1ccccc1)[C@H]1Cc2ccccc2CN1C(=O)c1cc(Cl)c(O)cc1O`: the IC50 was found to be 2.65 µM in experiment [1] and 4.75 µM in experiment [2].
Turning to `O=C(NC1CCCC1)[C@H]1Cc2ccccc2CN1C(=O)c1cc(Cl)c(O)cc1O`, the figures for the IC50 in experiment [1] and in experiment [2] were 3.51 µM and 5.42 µM, respectively.
For `CCNC(=O)[C@@H]1Cc2ccccc2CN1C(=O)c1cc(Cl)c(O)cc1O` the same measures were 3.88 µM and 5.18 µM.
